Test results reported in patent US10524472B2, “Elicitor peptides having disrupted hypersensitive response box and use thereof” (Plant Health Care, Inc., priority 2014, dated 2020).
Marks after values point to notes of the source that are not given here.

Tested on: tobacco mosaic virus (TMV)
Assay: Induction of resistance to tobacco mosaic virus in tobacco
Type: in vivo
Conditions: for TMV response / effectiveness against TMV infection (summary of Table 22): foliar spray; for Effectiveness Covered (%) (decline in TMV lesions vs UTC, systemic response) / Effectiveness Uncovered (%) (decline in TMV lesions vs UTC, local response): TMV 3 days post-treatment, scored 3 days after inoculation; for efficacy on covered leaves, systemic immune response: covered leaf

Substance	Effectiveness Covered (%) (decline in TMV lesions vs UTC, systemic response) (spray 20 ug/ml)	Effectiveness Uncovered (%) (decline in TMV lesions vs UTC, local response) (spray 20 ug/ml)	Effectiveness Covered (%) (decline in TMV lesions vs UTC, systemic response) (spray 10 ug/ml)	Effectiveness Uncovered (%) (decline in TMV lesions vs UTC, local response) (spray 10 ug/ml)	also measured
SEEEEELAQLSAQLLKSLL (P18min-11S)	−274%	−90%	–	–	TMV response / effectiveness against TMV infection (summary of Table 22): weaker TMV responses
QAGPQSANKTGNVDDANNQDPEQALLQLLEDLV (P14-22E,26L)	84* %	61* %	–	–	–
QDPMQALMQLLEDLDKLLK (P14d-15D)	74* %	87* %	–	–	–
QAGPQSANKTGNVDDANNQDPMQALMQLLED (P14-dc2)	–	–	56%	76* %	–
QAGPQSANKTGNVDDANNQDPE_ALAQLLEDLV (QAGPQSANKTGNVDDANNQDPEALAQLLEDLV; P14-22E,26A)	88* %	89* %	–	–	–
SQGISEKQLDQLLSQAIQALLQP (P4-14S-16A)	–	–	3%	1%	TMV response / effectiveness against TMV infection (summary of Table 22): weaker TMV responses
QDPMQADMQLLEDLVKLLK (P14d-7D)	55* %	71* %	–	–	–
QDPMQALMQLDEDLVKLLK (P14d-11D)	87* %	81* %	–	–	–
SQGISEKQLDQLLSQL (P4-116)	–	–	0* %	52%	TMV response / effectiveness against TMV infection (summary of Table 22): reduced effectiveness against TMV infection
KPNDSQSNIAKLISALIMSLSQ (P15b-21S)	97* %	100* %	–	–	–
SQGISEKQLDQLLSQVIQALLQP (P4-14S-16V)	–	–	85* %	78%	TMV response / effectiveness against TMV infection (summary of Table 22): produced the best results
QDPMQASMQLLEDLVKLLK (P14d-7S)	23%	−112%	–	–	efficacy on covered leaves, systemic immune response: reduced efficacy on covered leaves
QAGPQSANKTGNVDDANNQDPLQALAQLAEDLV (P14-22L,26,29A)	–	–	70* %	85* %	–
SEEEEEDAQLLAQLLKSLL (P18min-7D)	29%	26%	–	–	efficacy on covered leaves, systemic immune response: reduced efficacy on covered leaves; TMV response / effectiveness against TMV infection (summary of Table 22): weaker TMV responses
SEEEEELEQLLEDLV (P14-39)	66* %	72* %	–	–	–
QDPMQALMQLLEDDVKLLK [P14d-14D]	35%	84* %	–	–	–
KPNDSQSNIAKSISALIMSLLQ (P15b-12S)	47%	76* %	–	–	–
SEEEEEALEQLLEDLVKLL (P14-31)	87* %	85* %	–	–	–
SEEEEEEEIAKLIS_LIESLL (SEEEEEEEIAKLISLIESLL; P15-61)	7%	55* %	–	–	–
QAGPQSANKTGNVDDANNQDPLQALAQLLEDLV (P14-22L,26A)	83* %	72* %	–	–	–
SEEEEELQQLLKLFSEILQ (P3-10)	95* %	94* %	–	–	–
QDPMQALMQLLEDLVKDLK (P14d-17D)	65* %	68* %	–	–	–
QAGPQSANKTGNVDDANNQDPAQALAQLLEDLV (P14-22A,26A)	–	–	93* %	92* %	–
SEEEELDQLLTQLI (P1-31)	88* %	95* %	–	–	TMV response / effectiveness against TMV infection (summary of Table 22): anti-TMV activity
SEEEEELTGVLQKLSKILEAL (P25min-15S)	74* %	81* %	–	–	–
SEEEEELTLTGVLQKLLKIL (P25-14)	−87%	52%	–	–	TMV response / effectiveness against TMV infection (summary of Table 22): weaker control of TMV infection
SEEEEELKALLKSIARLL (P19min-13S)	−70%	35%	–	–	TMV response / effectiveness against TMV infection (summary of Table 22): poor immune activation; TMV response / effectiveness against TMV infection (summary of Table 22) (listed as P19 min-135): weaker TMV responses

Substance	Effectiveness Covered (%) (decline in TMV lesions vs UTC, systemic response) (spray 20 ug/ml)	Effectiveness Uncovered (%) (decline in TMV lesions vs UTC, local response) (spray 20 ug/ml)	Effectiveness Covered (%) (decline in TMV lesions vs UTC, systemic response) (spray 10 ug/ml)	Effectiveness Uncovered (%) (decline in TMV lesions vs UTC, local response) (spray 10 ug/ml)	also measured
SQGISEKQLDQLLSQLI (P4-111)	–	–	65%	58%	–
SQGISEKQLDQLLSQLFQALLQP (P4-14S-17F)	–	–	57%	94%	–
PSPFTQMLMHIVGEDLQAQN (P6a-15D)	74* %	74* %	–	–	–
QAGPQSANKTGNVDDANNQDPAQALLQLLEDLV (P14-22A,26L)	62%	48%	–	–	–
QAGPQSANKTGNVDDANNQDPLQALLQLAEDAV (p14-22L,29,32A) [P14-22L,28,32A]	–	–	37* %	71* %	–
QQPIDRQTIEQMAQLLAQLL (P18-8)	78* %	55%	–	–	–
QAGPQSANKTGNVDDANNQDPLQAAAQLLEDLV (P14-22L,25-26A)	–	–	75* %	87* %	–
SEEEEELLQLLEDLV (P14-41)	61* %	86* %	–	–	–
SEEEELDQLLSQLI (P4-115)	87* %	87* %	–	–	–
QAGPQSANKTGNVDDANNQDPLQALLQLLEDAA (P14-22L,32-33A)	–	–	69* %	91* %	–
SQGISEKQLDQLLSQLI_ALLQP (SQGISEKQLDQLLSQLIALLQP; P4-d18)	–	–	15%	65%	–
SQGISEKQLDQLLSQLIQAVLQP (P4-14S-20V)	–	–	−29%	−26%	TMV response / effectiveness against TMV infection (summary of Table 22): weaker TMV responses
SEEEEELKALSKLIARLL (P19min-11S)	45%	71* %	–	–	–
QDPMQALMQLLEDLVKLDK (P14d-18D)	32%	52%	–	–	TMV response / effectiveness against TMV infection (summary of Table 22): weaker TMV responses
SEEEEELAQLLAQLL (P18-9)	52%	65* %	–	–	–
SQGISEKQL_QLL_QLI_ALLQP (SQGISEKQLQLLQLIALLQP; P4-d10,14,18)	–	–	37%	55%	TMV response / effectiveness against TMV infection (summary of Table 22): moderate reduction in effectiveness against TMV infection
QDPAQALEQLLEDLVKSLK (p14f-17S)	84* %	94* %	–	–	–
PSPFTQMLMHSVGEILQAQN (P6a-11S)	88* %	71* %	–	–	–
SEEEEELTGVLQKLLK_ILE (SEEEEELTGVLQKLLKILE; P25-12)	58%	77* %	–	–	–
QDPMQALMQDLEDLVKLLK (P14d-10D)	84* %	84* %	–	–	–
QAGPQSANKTGNVDDANNQDPMQALMQLLEDL (P14-dc1)	–	–	46%	65* %	–
GGLTLTGVDQKLMKILNALVQ (P25-9D)	55%	78* %	–	–	efficacy on covered leaves, systemic immune response: reduced efficacy on covered leaves
SQGISEKQLDQLLSQLIAQALLQP (P4-i18A)	–	–	50%	81%	–
SEEEEELQKLLK_ILEALV (SEEEEELQKLLKILEALV; P25-9)	87* %	68%	–	–	–
SQGISEKQLADQLLASQLIAQALLQP (P4-i10A,14A,18A)	–	–	69%	75%	–
SEEEEEEEIAKLISALIESLL (P15-60)	13%	55%	–	–	–
